Measurements: patent EP0603160A2, “Compositions for in-situ active compound assembly” (SCRIPPS CLINIC AND RESEARCH FOUNDATION, priority 1986, dated 1988)
Like-named read-outs stand apart in the source and are kept apart here.

Tests used:
[1] = test system: human erythrocytes; assay: Erythrocyte lysis (light scattering, hemoglobin release, cell counts); assay type: cell-based; details: for time for which erythrocytes are stable: solutions containing either DAPG or CHD alone
Experimental: The putative product shown in Reaction Scheme 1 is evidently cytotoxic, since a suspension of human erythrocytes in a solution containing both CHD and DAPG in phosphate buffered saline is 95% lysed or aggregated within 1-14 hours under physiological conditions (the precise time depending on the concentrations) whereas erythrocytes are stable for at least 24 hours in plain PBS, and also in solutions containing either DAPG or CHD alone. In addition, when erythrocytes are incubated with mixtures of CHD and DAPG, a substantial induction period is observed during which no lysis or aggregation occurs, due to the time lag in formation of the cytotoxic material. Whether lysis or aggregation results depends on relative concentration; excess CHD results in lysis, equimolar concentrations in aggregation. The cytotoxicity may be due to the formation of the polycation, analogous to the known antitumor activity of poly-(L-lysine); Arnold, L. J. Proc. Natl Acad Sci (supra).
For erythrocytes blood was collected and stored with KEDTA at 4°C and erythrocytes prepared within 48 hours by centrifuging three times in phosphate-buffered saline (PBS, pH 7.4). Suspensions containing 3 x 10⁷ cells/ml were prepared in PBS containing 1% EtOH, but no […] cations, and incubated at 37°C with the compounds or mixtures to be tested.
On the other hand, while a mixture of 28 µM AOG and 28 µM decanal (reagent grade, Aldrich Chemical Co.) results in less than 10% lysis within the same 20 minute time frame, as the time of incubation increases, lysis increases also, as indicated by hemoglobin release measured by (1) light absorption of the supernatant at 400 nm. (2) decrease of light scattering by the cells at 700 nm, and (3) direct cell counts using a microscope. […] Suspensions of 3.5 x 10⁷ cells/ml prepared as above in PBS (1% EtOH, no divalent cations, pH 7.4) were incubated at 37°C, and cell lysis was followed by observing the decrease in absorbance at 700 nm. For 0% lysis, A₇₀₀ is 1.0; 0.2 for 100% lysis).
The curves were calculated using a nonlinear least squares fitting algorithm (Arc, H, et al, Statistical Methods (1970) Harper & Row, pp. 100-111) and based on a modified Hill equation (Cantor, C.R. et al, supra) wherein percent hemolysis is calculated as 100% divided by (1+(K/C))^α [formula] . In this equation, K is the median effect concentration, C is the concentration of DIOG (or of decanal and AOG), and α is the Hill constant.

[2] = test system: HeLa cells; assay: HeLa cell cytotoxicity, trypan blue exclusion; assay type: cell-based, human; details: for percentage of cells intact: 400 µM, each alone, two hours, Figure 5a; for HeLa cell toxicity: AOG or dodecanedial alone, Figure 5b
Experimental: These cells were grown in suspension in Joklik's median supplemented with calf serum, centrifuged and then taken up into Dulbecco's modified Eagles medium (DMEM) without serum. Cell suspensions containing 2-4 x 10⁶ cell/ml in DMEM containing 1% ethanol were incubated at 37°C, with or without decanal. AOG, or combinations thereof. Cell membrane damage was measured by hand counting of cells using trypan blue exclusion as the criterion.

[3] = test system: S cerevisiae; assay: Yeast growth in YPD medium with AOG and decanal; assay type: cell-based; details: 24 hours
Experimental: The effect of the combination of AOG and decanal on yeast was also determined. S cerevisiae in YPD medium at cell densities of 10⁵-10⁶ cell/ml used as starting concentrations. When no reagents were added to the medium, the cell density increased about 90 fold in 24 hours. […] When 10 µg/ml decanal plus 44 µg/ml AOG were added in combination, all yeast died after 24 hours.

[4] = J Pharm Sci (1971) 60:1128-1131; cited from earlier work
[5] = test system: Ox blood erythrocytes; assay: Erythrocyte killing with or without 1% serum, light scattering; assay type: cell-based; details: Bos taurus, 1 h, pH 6.6, 896 µM AOG, Decanal 0µM (Table 4), read-out: % cells killed (0% serum)
[6] = test system: Ox blood erythrocytes; assay: as above; assay type: cell-based; details: Bos taurus, Erythrocyte, 1 h, pH 6.6; for mortality at 448 µM: Decanal 0, AOG maintained at 448 µM according to the text (Table 4)
Experimental: (§1) Ox blood erythrocytes were incubated for one hour in PBS at pH 6.6 in the presence or absence of 1% serum at 37°C. […] However, at 4-16 µM DIOG, the percentage of cells killed increased from 4.3 to 60.9. On the other hand, in the absence of serum, 7.2.% cells were killed even without the addition of DIOG, and a steady increase in killing occurred as the DIOG concentration increased, reaching 100% of cells killed at 8 µM.
The AOG concentration was maintained at a high level (448 µM) and the decanal concentration varied from 0-16 µM corresponding the previous DIOG concentration range. In this protocol, similar results were obtained for cells incubated in the absence of serum, but in the presence of 1% serum the curve was slightly displaced so that the cells appeared more protected as shown in Table 4.

[7] = test system: Ox blood erythrocytes; assay: Erythrocyte killing with or without 1% serum, hemoglobin release; assay type: cell-based; details: Bos taurus, 1 h, read-out: cell killing measured by hemaglobin release, 1% Serum
Experimental: as §1

[8] = test system: Erythrocytes; assay: Antidote to self assembly, erythrocyte lysis; assay type: cell-based
Experimental: In this example, cyclohexanone is used as an antidote to prevent the assembly of AOG plus decanal to produce the biologically active agent DIOG, which was described in a previous example. Erythrocytes, prepared as above, were exposed to 20 µM AOG plus 20 µM decanal.

[9] = test system: some tumors; details: on a weight basis; Arnold et al, Proc Natl Acad Sci USA (1979); cited from earlier work
[10] = test system: S. typhimurium strain 14028R; assay: Suspension culture CFU at pH 5 versus pH 7.4; assay type: cell-based; details: NFZ alone at 10 µM; 20 hours at 37°C in PBS, 1% DMSO
Experimental: This selectivity was also shown in suspension cultures when S. typhimurium strain 14028R was incubated for 20 hours at 37°C in PBS at either pH 5 or pH 7.4 containing 1% DMSO. When no drugs were added, the culture contained 8 x 10⁶ colony forming units (CFU)/ml for pH 5 and 1.5 x 10⁷ CFU/ml for pH 7.4. The self assembling drugs tested in this instance were semicarbazide (SC), […] (NFA) and their reaction product nitrofurazone (NFZ). Either the […] product, or mixtures of various concentrations of the precursors NC + NA were added after inoculation of the medium. While the maximum toxic selectivity (the ratio of CFU/ml at pH 7.4 as compared to CFU/ml at pH 5) observed for, NFZ alone, at 10 µM was about 100, a mixture of 1500 µM SC + 7 µM NFA gave a toxic selectivity ratio of over 8000.

[11] = test system: Monilinia sp; assay: Fungal growth on YPD medium; assay type: cell-based; details: 2 mM of either reagent alone
Experimental: Similar results are obtained using Candida albicans, a human infective agent, as the target organism. […] Also, the growth of Monilinia sp, the causal agent in peach brown rot, is inhibited by the combination of the foregoing reagents, but not by either individually. No growth is observed after four days on YPD medium when 250 µM each of the pyridine-2-carboxaldehyde and 2-hydrazinopyridine are included.

[12] = test system: S. cerevisiae YP52; assay: Growth inhibition of yeast by PC and HP in YPD medium, roller drum; assay type: cell-based; details: each alone, concentrations below 2 mM, 20 hours at 30°C in YPD medium
Experimental: Pyridine-2-carboxaldehyde (PC) and 2-hydrazino-pyridine (HP) are each alone nontoxic to S. cerevisiae YP52 yeast at concentrations below 2 mM when provided over 20 hours at 30°C in YPD medium in a roller drum. However, when supplied together, these compounds are capable of inhibiting the growth of S. cerevisiae YP52 at 30 °C in YPD. When placed together in the medium at concentrations of 1 mM + 1 mM and at 0.5 mM + 0.5 mM. substantial inhibition occurs. The adduct. pyridino-2-carboxaldehyde (2-pyridyl hydrazone) (PCPH) of the formula: [drawing 25] is a chelator and has a structural similarity to 2,2': 6',2'' terpyridine which is a known cytotoxin (McFadyen et al, J Med Chem (1985) 28:1113-1116). The second order rate constant for this reaction is 2 l/mol-sec at 37 °C, pH6, in phosphate-buffered saline.

[13] = test system: S. typhimurium; assay: Filter disk growth inhibition on agar LB plates at pH 7.4 and pH 5; assay type: cell-based, Salmonella typhimurium; details: 20 nanomoles on filter disk
Excerpt: The formation of the foregoing chelate is also effective in inhibiting the growth of Salmonella typhimurium. This inhibition can be tested using agar disks or in culture suspension. The effect of the formation of chelate can be studied in this regard by conducting the experiments at pH 5 and pH 7.4; at pH 5 the formation of the chelate is encouraged while at […] the reaction rate is much slower.
The inhibition was spread between the disks rather than circling each disk as was the case for the PCPH inhibition. Thus, control of pH is a selective factor in controlling the self-assembly of the cytotoxic chelator.

CCCCCCCCCC=O [decanal]
lysis ([1]; 28 µM or 80 µM decanal alone, after more than 400 minutes, Figure 2): less than 5% | percentage of cells intact [2]: considerably less dramatic decreases | increase in cell density ([3]; 20 µg/ml decanal): 11 fold

CN(Cc1cnc2nc(N)nc(N)c2n1)c1ccc(C(=O)N[C@@H](CCC(=O)O)C(=O)O)cc1 [methotrexate]
half-life of the drug in serum [4]: about 2 hours

CCCCCCCCNC(=N)NN [AOG, N-amino-N'-1-octyl guanidine]
mortality at 896 µM [5]: 6.4% | hemolysis at 28 µM ([1]; Homo sapiens, Erythrocyte, 400 min, pH 7.4, 28 µM, 100 µM or 200 µM AOG alone, after more than 400 minutes, Figure 2): < 5% | lysis ([1]; either alone at 100 µM): did not result in any observable lysis | percentage of cells intact [2]: considerably less dramatic decreases | HeLa cell toxicity [2]: neither is very toxic alone | increase in cell density ([3]; 88 µg/ml AOG): threefold increase | mortality at 896 µM ([6]; 896 µM AOG, Decanal 0µM (Table 4), read-out: % cells killed (1% serum)): 1.3% | mortality at 448 µM ([6]; read-out: % cells killed (0% serum)): 0% | mortality at 448 µM ([6]; read-out: % cells killed (1% serum)): 0% | hemolysis at 896 µM ([7]; pH 6.6, 896 µM AOG, Decanal Concentration 0 (Table 5)): 0% | hemolysis at 448 µM ([7]; pH 6.6, Decanal Concentration 0, 448 µM AOG according to the text (Table 5), comma separates duplicates): 0%

O=CCCCCCCCCCCC=O [dodecanedial]
HeLa cell toxicity [2]: neither is very toxic alone

NNC(=Nc1ccccc1)NN [DAPG, 1,2-diamino-3-phenyl guanididium iodide]
hemolysis at 3000 µM ([1]; Homo sapiens, Erythrocyte, pH 7.4, 3 mM DAPG alone, after 24 hours): 18% | time for which erythrocytes are stable [1]: at least 24 hours

O=C1CCCCC1 [cyclohexanone]
lysis ([8]; 20 mM cyclohexanone plus 10 µM AOG alone, no decanal): do not give lysis | lysis ([8]; cells first exposed to 20 µM AOG for 2 hours, then 20 µM decanal and 20 mM cyclohexanone): Extensive lysis | lysis ([8]; pretreatment 2 hours with 20 mM cyclohexanone alone, then 20 µM AOG plus 20 µM decanal): extensive lysis | lysis ([8]; pretreatment 2 hours with 20 mM cyclohexanone plus 20 µM AOG, then 20 µM decanal added): only slow lysis

O=CCCCCCCCCC=O [DDD, decanedialdehyde, CHO(CH₂)₈CHO]
lysis ([1]; either alone at 100 µM): did not result in any observable lysis

poly-(L-lysine) [poly-(L-lysine) of Mr 3 kd]
toxicity relative to poly-(L-lysine) having Mr of 70 kd [9]: less than 1/20

NC(=O)N/N=C/c1ccc([N+](=O)[O-])o1 [NFZ, nitrofurazone]
maximum toxic selectivity (the ratio of CFU/ml at pH 7.4 as compared to CFU/ml at pH 5) [10]: about 100

O=C1CCC(=O)CC1 [CHD, cyclohexane-1,4-dione]
hemolysis at 60000 µM ([1]; Homo sapiens, Erythrocyte, pH 7.4, 60 mM CHD alone, after 24 hours): 18% | time for which erythrocytes are stable [1]: at least 24 hours

NNc1ccccn1 [HP, 2-hydrazino-pyridine]
growth of Monilinia sp [11]: substantial growth | toxicity to S. cerevisiae YP52 [12]: nontoxic

O=Cc1ccccn1 [PC, Pyridine-2-carboxaldehyde]
growth of Monilinia sp [11]: substantial growth | toxicity to S. cerevisiae YP52 [12]: nontoxic

C(=NNc1ccccn1)c1ccccn1 [PCPH, pyridino-2-carboxaldehyde (2-pyridyl hydrazone)]
growth inhibition of S. typhimurium ([13]; pH 5): inhibited growth | growth inhibition of S. typhimurium ([13]; pH 7.4): inhibited growth
